Assay results as given in US12102607B2, “C5aR inhibitors for use in the treatment of chemotherapy-induced iatrogenic pain” (Dompe' Farmaceutici S.P.A., priority 2017, dated 2024).

Assays:
[1] = test system: DRG neurons; assay: Cells number of DRG neurons (immunofluorescence, image analysis); assay type: cell-based; conditions: for % of cell number: relative to UT
Protocol: (§1) Dorsal Root Ganglion neurons were obtained by dissociation of post natal (P2) Sprague Dawley rat ganglia (Envigo, Bresso Italy), following well-defined protocols (O'Meara et al, 2011; Owen et al, 2012). To minimize introduction of contaminating cells into the culture, any excessively long roots were trimmed from DRGs. After the isolation, DRGs were enzymatically dissociated as follows: • 20 minutes of 1.5 mg/ml papain exposure at 37° C., • 30 minutes of 4 mg/ml collagenase exposure at 37° C.
(§2) Subsequently, cells were mechanically dissociated with a fire polished glass Pasteur pipette, in order to obtain a single cell suspension.
(§3) Once dissociation was achieved, cells were seeded onto 96 black multiwell plates coated with Laminin (10 ug/mL, overnight at Room Temperature, RT) at selected densities. Following 1 week of incubation in DMEM high glucose medium supplemented with 10% FBS, 1× N2, 1× B27, 100 IU/mI penicillin, […] streptomycin, cells were treated according to experimental needs.
(§4) Alpha Tubulin Acetylation DRG-derived neurons were cultured for 7 days and then treated with:
(§5) • paclitaxel (200 nM, 500 nM, 1 μM and 5 μM, 20 μM) in presence or absence of DF3966Y (0.1, 1 and 10 μM) or DF2593A (0.1, 1 and 10 μM) • or C5a (500 ng/ml and 1 μg/ml) in presence or absence of DF3966Y (1 μM)
(§6) After 24 hr of treatment, cells were stained by immunofluorescence.
(§7) Cells were fixed with saccharose-paraformaldehyde then staining was performed overnight. Primary antibodies (anti—Ill Tubulin and anti-synaptotagmin 1) were diluted 1:500 in 1×PBS-4% BSA-2% Normal goat serum and 0.3% Triton x-100. The next day, cells were washed with 1×PBS-4% BSA and secondary antibodies were used diluted 1:500 in 1×PBS-4% BSA-2% Normal goat serum and 0.3% Triton x-100. After 1 hr of incubation, cells were washed with 1×PBS. Hoechst was used as a counterstain.
(§8) Sixteen images per well were taken with ArrayScan XTI HCA Reader (Thermo Fisher Scientific) with and 40× objective. All the analysis were done with HCS Studio software
(§9) Cells number, synapse number and dentritic arborization were evaluated in untreated cells and in cells stimulated with paclitaxel and C5a alone or in presence of the drug. As marker of chemotherapy-induced toxicity, the total number of synapses on DRG neurons was quantitative evaluated as percentage of the number of synapse with respect to untreated (UT) control.
(§10) Data are obtained as the sum of the values obtained by the analysis of sixteen fields per well for each experiment. Percentage of the values in respect to the relative mean untreated group was calculated. Mean of the percentages from 4 separate experiments was plotted in the following Tables 2-7.

[2] = test system: DRG neurons; assay: Electrophysiological recordings (whole-cell patch-clamp, current-clamp) of DRG-derived neurons; assay type: cell-based, Sprague Dawley rat
Protocol: as §1
Dorsal Root Gangliar (DRG)-derived neurons were cultured for 7 days and then treated in blind with the following combinations: 10 nM Paclitaxel, 10 nM Paclitaxel+1 μM DF3966Y, 1 μg/ml C5a, 1 μg/ml C5a+1 μM DF3966Y.
The compounds were administered for 1 min 30 sec (short acute stimulation) or 5 minutes (long chronic stimulation). The application of the compounds was followed by a wash-out in the physiological control solution for an equivalent time (about 10 min).
Electrophysiological recordings were performed by the patch-clamp technique in the whole-cell configuration. The standard extracellr solution was bath applied and contained the following (mM): NaCl 135, KCl 2, CaCl2 2, MgCl2 2, hepes 10, glucose 5, pH 7.4. The standard pipet solution contained the following (mM): potassium aspartate 130, NaCl 10, MgCl2 2, CaCl2 1.3, EGTA 10, Hepes 10, pH 7.3. Recordings were acquired by the pClamp8.2 software and the MultiClamp 700A amplifier (Axon Instruments), in current-clamp mode.

[3] = test system: DRG neurons; assay: Synapse number on DRG neurons (synaptotagmin staining, image analysis); assay type: cell-based, Sprague Dawley rat; conditions: for % of synapse number: relative to UT
Protocol: as §1, §2, §3, §4, §5, §6, §7, §8
For synapse count a threshold has been set, in particular all the objects, positive to synaptotagmin staining, in the range 0.365-2.457 μm^2 have been considered as synapses.
as §9, §10

[4] = test system: DRG neurons; assay: Dendritic tree area of DRG neurons (image analysis); assay type: cell-based, Sprague Dawley rat; conditions: for % dendritic tree area: relative to UT
Protocol: as §1, §2, §3, §4, §5, §6, §7, §8
Dendritic arborization directly influences synaptic genesis and input. A well-developed arborization indicates a functional synaptic network. For this reason, the area occupied by dendritic arborization has been quantified.
as §10

[5] = test system: acetylated α-Tubulin; assay: In-cell western analysis of acetylated α-Tubulin in DRG neurons; assay type: cell-based, Sprague Dawley rat; conditions: for Acetylated α-Tubulin (% of UT): DRG neurons
Protocol: as §1, §2, §3
Dorsal Root Ganglion neurons isolated as previously reported were subjected to the following experimental challenge scheme as depicted in FIG. 10.
Paclitaxel, C5a and drugs were administered 24 hr prior the in-cell western experiment. Following 24 hr of treatment with appropriate stimuli as previously indicated, cells were washed with 1×PBS and fixed with 3,7% formaldehyde for 15 min. After the removal of fixing solution, cells were washed with 1×PBS and permeabilized with 1×PBS-0,1% Triton X-100 for 5 min at RT. Cells were then stained over night at 4° C. with the anti-acetylated α-Tubulin antibody, diluted 1:500 in Odyssey Blocking buffer, following manufacturer's protocol.
The next day, cells were washed with 1×PBS-0.1% Tween20, and stained with the secondary antibody (diluted 1:800 in Odyssey Blocking buffer, as recommended by the protocol) and with the CellTag 700Stain […]. To lower the background, Tween20 at a final concentration of 0.2% was added to the Odyssey Blocking buffer. 96-well plates were then read at Odyssey CLx Imaging system and images acquired. Data analysis was carried out by the use of Image Studio 2.1 software.
Paclitaxel was given to the DRG neurons following 7 days of culture at the concentration of 200 nM (Scuteri et al. 2006).
Effect of DF3966Y in C5α-induced neuronal toxicity In order to determine whether the observed effects may be triggered also by C5a, recombinant mouse C5a 1 μg/ml (111.11 nM) was given to the DRG neurons after 7 days of culture in presence or absence of DF3966Y 1 μM.
After 24 hr of incubation, acetylated α-Tubulin was quantified using in-cell western technique, as previously described.

**Q.** With `C[C@H](c1ccc(Nc2nc(C(F)(F)F)cs2)cc1)c1nnn[nH]1` [DF3966Y, 1-N-[4-[(1R)-1-(1H-tetrazol-5-yl)ethyl]phenyl}-4-(trifluoromethyl)-11,3-thiazol-2-amine] as the molecule, how does the “% of cell number” value ([1]; DF3966Y 1 μM + C5a (Table 3)) read?
**A.** Its value is 96.65 ± 10.77%.

**Q.** And the “% of cell number” value ([1]; DF3966Y 1 μM + PAC (Table 2))?
**A.** Its value is 98.83 ± 12.49%.

**Q.** What about the “% of cell number” value ([1]; DF3966Y 1 μM alone (Table 2)) of the same molecule?
**A.** Its value is 101.55 ± 10.59%.

**Q.** And the “% of cell number” value ([1]; DF3966Y 1 μM alone (Table 3))?
**A.** The value was 96.96 ± 6.45%.

**Q.** What about the “effect on cell number” value ([1]; DF3966Y administered alone or with PAC) of the same molecule?
**A.** Its value is “did not exert any significant effect on cell number”.

**Q.** What about the “alteration of electrical activity under Paclitaxel plus drug” value ([2]; 10 nM Paclitaxel + 1 μM DF3966Y, first immediate phase and longer time of exposure) of the same molecule?
**A.** Its value is “no significant alteration of electrical activity”.

**Q.** And the “inhibition of electrical activity under C5a plus drug, longer time of exposure” value ([2]; 1 μg/ml C5a + 1 μM DF3966Y, longer time of exposure (3-5 minutes))?
**A.** The value was “about 35%”.

**Q.** And the “alteration of electrical activity under C5a plus drug, short time points” value ([2]; 1 μg/ml C5a + 1 μM DF3966Y, short time points)?
**A.** Its value is “no significant alteration of the electrical activity”.

**Q.** And the “% of synapse number” value ([3]; DF3966Y 1 μM + C5a (Table 5))?
**A.** The value was 111.33 ± 9.27%.

**Q.** What about the “% of synapse number” value ([3]; DF3966Y 1 μM + PAC (Table 4)) of the same molecule?
**A.** Its value is 92.04 ± 21.01%.

**Q.** And the “effect on Paclitaxel-induced decrease in synapse number” value ([3]; DF3966Y 1 μM + paclitaxel)?
**A.** Its value is “significantly counteracted Paclitaxel-induced effect”.

**Q.** And the “% of synapse number” value ([3]; DF3966Y 1 μM alone (Table 4))?
**A.** Its value is 99.89 ± 12.94%.

**Q.** And the “% of synapse number” value ([3]; DF3966Y 1 μM alone (Table 5))?
**A.** The value was 99.89 ± 12.94%.

**Q.** And the “% dendritic tree area” value ([4]; DF3966Y 1 μM + C5a (Table 7))?
**A.** Its value is 106.45 ± 9.43%.

**Q.** And the “% dendritic tree area” value ([4]; DF3966Y 1 μM + PAC (Table 6))?
**A.** The value was 101.21 ± 7.97%.

**Q.** What about the “effect on paclitaxel-induced decrease of dendritic arborization area” value ([4]; DF3966Y 1 μM + paclitaxel) of the same molecule?
**A.** Its value is “seems to counteract such a decrease”.

**Q.** And the “% dendritic tree area” value ([4]; DF3966Y 1 μM alone (Table 6))?
**A.** The value was 103.07 ± 8.17%.

**Q.** What about the “% dendritic tree area” value ([4]; DF3966Y 1 μM alone (Table 7)) of the same molecule?
**A.** The value was 103.07 ± 8.17%.

**Q.** What about the “levels of acetylated α-Tubulin under C5a plus drug” value ([5]; DF3966Y 1 μM + C5a 1 μg/ml, 24 hr) of the same molecule?
**A.** The value was “significantly reduced the challenge induced by C5a exposure”.

**Q.** And the “Acetylated α-Tubulin (% of UT)” value ([5]; drug 0.1 μM under Paclitaxel 200 nM, 24 hr)?
**A.** The value was 76.45 % of UT.

**Q.** And the “Acetylated α-Tubulin (% of UT)” value ([5]; drug 1 μM under Paclitaxel 200 nM, 24 hr)?
**A.** The value was 65.16 % of UT.

**Q.** What about the “Acetylated α-Tubulin (% of UT)” value ([5]; drug 10 μM under Paclitaxel 200 nM, 24 hr) of the same molecule?
**A.** The value was 89.05 % of UT.

**Q.** What about the “reversal of Paclitaxel-induced increase in acetylated α-Tubulin” value ([5]; drug 0.1, 1, 10 μM, Paclitaxel 200 nM) of the same molecule?
**A.** Its value is “significantly reverted the Paclitaxel-induced challenge”.

**Q.** How did the “effect on cell number” value ([1]; Paclitaxel alone) turn out when `CC(=O)O[C@H]1C(=O)[C@@]2(C)[C@H]([C@H](OC(=O)c3ccccc3)[C@]3(O)C[C@H](OC(=O)[C@H](O)[C@@H](NC(=O)c4ccccc4)c4ccccc4)C(C)=C1C3(C)C)[C@]1(OC(C)=O)CO[C@@H]1C[C@@H]2O` [Paclitaxel, reference compound] was run?
**A.** The value was “slight decrease in cell number”.

**Q.** What about the “% of cell number” value ([1]; Paclitaxel alone (Table 2)) of the same molecule?
**A.** Its value is 88.87 ± 6.04%.

**Q.** What about the “action potential firing rate vs CTRL, immediate” value ([2]; 10 nM Paclitaxel alone, immediate phase) of the same molecule?
**A.** The value was “+54.64%”.

**Q.** What about the “electrical activity vs CTRL, longer times of exposure” value ([2]; 10 nM Paclitaxel alone, longer times of exposure) of the same molecule?
**A.** Its value is −83.51%.

**Q.** And the “% of synapse number” value ([3]; PAC alone (Table 4))?
**A.** The value was 88.02 ± 2.99%.

**Q.** What about the “effect on synapse number” value ([3]; Paclitaxel alone) of the same molecule?
**A.** Its value is “marked decrease in synapse number”.

**Q.** What about the “% dendritic tree area” value ([4]; PAC alone (Table 6)) of the same molecule?
**A.** The value was 92.22 ± 3.47%.

**Q.** And the “area occupied by dendritic arborization” value ([4]; Paclitaxel alone)?
**A.** The value was “non-significant decrease”.

**Q.** And the “change in acetylated α-Tubulin with respect to control (UT) cells” value ([5]; Paclitaxel 200 nM alone)?
**A.** Its value is “marginal yet significant increase”.

**Q.** And the “Acetylated α-Tubulin (% of UT)” value ([5]; Paclitaxel 200 nM alone, 24 hr)?
**A.** Its value is 111.41 % of UT.
